From US20130116251A1, “Novel HSP90 Inhibitor” (Nippon Kayaku Kabushiki Kaisha, priority 2005, published 2013)
Structures can show the parent of a compound that is named as a salt.

What was measured:
[1] = test system: HSP90 client protein ERα in MCF7 cells; assay: Measurement test for amount of HSP90 client protein ERα (Western blotting); type: cell-based; settings: MCF7 cells treated 16 hours at 3-5 concentrations
Method: (§1) MCF7 cells (American Type Culture Collection, Rockville, Md.) were treated with the compounds of the present invention at various concentrations for 16 hours to confirm that the HSP90 inhibitors of the present invention induce a depression of intracellular concentration of the client protein or target polypeptide that bind to HSP90. The amount of the HSP90 client protein Her2 and ERα was evaluated by the Western blotting method.
(§2) One million cells were seeded in a 6 cm dish, and 24 hours later the compounds of the present invention (Example 1-2, Example 2-1, Example 2-13, Example 2-2, Example 3-4, Example 2-5, Example 3-16, Example 3-6, Example 2-7, Example 3-27, Example 2-10 and Example 3-18) were added. Cells treated with the compounds were washed, mixed with 150 μl of lysis buffer (RIPA, 150 mM NaCl, 1% NP40, 0.1% deoxycholate (sodium salt), 0.1% SDS, 1 mM EDTA, 10 mM Tris-HCl (pH 8.0)) and incubated at 4° C. for 30 minutes. The cell lysates were centrifuged (15,000 rpm, 20 minutes) and protein (20 μg) of the supernatant was subjected to SDS polyacrylamide gel electrophoresis (SDS-PAGE). After finishing the electrophoresis, proteins in the gel were transferred to a PVDF membrane. The membrane after the transfer was treated with a primary antibody against the HSP90 client protein (anti Her2 or anti ERa antibody, both from Santa Cruz Biotechnology, Santa Cruz, Calif.), then treated with secondary antibodies (anti-rabbit Ig, horse radish peroxidase conjugated F(ab′)2 fragment (derived from donkey): Amersham Biosciences, UK Limited, Buckinghamhshire, UK.) and then the amount of the client protein was detected as the intensity of chemiluminescence signal with a chemiluminescence reagent (ECL: Amersham Biosciences UK Limited, Buckinghamshire, UK).

[2] = test system: HSP90 client protein Her2 in MCF7 cells; assay: Measurement test for amount of HSP90 client protein Her2 (Western blotting); type: cell-based; settings: MCF7 cells treated 16 hours at 3-5 concentrations
Method: as §1, §2

rHSP90 = assay: HSP90 binding assay (BIACORE SPR; inhibition of binding between rHSP90 and fixed herbimycin A); settings: concentration inhibiting binding between rHSP90 (50 μg/mL) and fixed herbimycin A by 50%, BIACORE-X SPR; read-out: HSP90 inhibitory activity IC50
From the text: The HSP90 binding assay system is a system for detecting the change of mass as SPR signal caused by the binding between herbimycin A fixed on a sensor chip and rHSP90 by BIACORE-X, in which 17-(6-amino hexylamino)herbimycin A is fixed through a carboxyl group on the surface of the sensor chip (CM5, BIACORE) on which carboxymethyldextran has been introduced. The method was according to the protocol of BIACORE. In addition, 17-(6-aminohexylamino)herbimycin A was synthesizes as described below.
rHSP90 (Stressgen Biotechnologies Corp., Victoria, BC Canada) at 50 μg/mL was exposed for 10 seconds to the surface of the sensor chip on which herbimycin A was fixed and the SPR signal (numerical value of interaction) was detected.
After mixing rHSP90 protein (5×10^−7M (50 μg/mL)) with the triazole derivative of the present invention, the mixture was exposed for 10 seconds to the surface of the sensor chip on which herbimycin A was fixed, and the SPR signal was measured by BIACORE-X.
Next, using following formula (1), the inhibitory activity (binding inhibition rate (%)) of the compound of the present invention to the binding between rHSP90 and fixed herbimycin A was obtained.
binding inhibition rate(%)=((b−s)/b)×100 Formula (1)
wherein b is the SPR signal when the compound of the present invention is not added to the sample: s is the SPR signal when the compound of the present invention is added to the sample.

[3] = test system: Human breast cancer cells (MCF7); assay: Antiproliferative activity on MCF7 cells (methylene blue method); type: cell-based; settings: Homo sapiens, MCF7, 72 h, MCF7 cells, 72 hours treatment, 660 nm absorbance after methylene blue staining; read-out: Antiproliferative activity IC50
Method: Human breast cancer cells (MCF7) were treated with samples of various concentrations of known HSP90 inhibitors (that is, geldanamycin, herbimycin, radicicol and PU3) and the compounds of the present invention for 72 hours to confirm the effect of the triazole derivatives of the present invention on the cell growth. The cell ratio after the drug treatment was evaluated by measuring 660 nm absorbance by a microplate reader (BioRad) after staining the cells with the methylene blue method.
Cells were distributed to wells of 96 well plates at 2000 cells per well and treated with drugs 24 hours later. Further, the medium was removed 72 hours later and the cells were fixed by adding 50 μl of methanol and standing at room temperature for 2 minutes. After removing methanol, 100 μl of a staining solution was added and stained for 30 minutes. After washing 3 times with 200 μl of distilled water, 3% HCl solution was added, and the 660 nm absorbance of methylene blue was measured by a microplate reader (BioRad).
Next, the antiproliferative activity rate (%) was obtained by the formula (2) below.
Antiproliferative activity rate(%)=((B−A)/B)×100 Formula (2)
wherein B is 660 nm absorbance of the sample when the compound of the present invention is not added, and A is 660 nm absorbance of the sample when the compound of the present invention is added.
From the concentration of the triazole derivative of the present invention and the antiproliferative activity rate, the concentration was obtained using the above formula, at which the cell growth was suppressed by 50% by comparing with the control, and termed an IC50 value.
The antiproliferative activity rate (%) was obtained for SH-b04, SH-b05 and SH-b06 described above by a similar manner to that of the triazole derivatives of the present invention.

Human lung cancer H460 = assay: Antitumor effect on nude mice transplanted with human lung cancer H460; type: in vivo; settings: tail vein, starting day = 1.0
Method: Antitumor Effect on Nude Mice Transplanted with Human Lung Cancer
Human lung cancer H460 tumor fragment, which had been passaged subcutaneously in nude mice, was made into about 3 mm fragment and transplanted subcutaneously to the back of nude mice using a trocar. When the tumor volume grew to about 50 mm^3 or above, the compound of the present invention was administered to the tail vein once a day for 5 or 7 days every day. The compound of the present invention was dissolved in DMSO, mixed with TWEEN 80, and then diluted with a 5% glucose injection solution and used. The vehicle of the compound was administered to the control group of OH-a01. The control groups in other experiments were not treated. The tumor volume was measured on the first administration day and on the evaluation day (7 or 8 days after the start of the administration), and the relative tumor volume of the evaluation day was obtained from the tumor volume on the first administration day. Further, the tumor volume was calculated by measuring the major axis (Lmm) and minor axis (Wmm) of the tumor and by the formula (L×W^2)/2.
Relative tumor volume represents the average relative tumor volume on day 7 after the start of the administration, assuming the tumor volume of the starting day is 1.0.
Relative tumor volume represents the average relative tumor volume on day 8 after the start of the administration, assuming the tumor volume of the starting day is 1.0.

[4] = Table 10, 100 mg/kg/day, 5 days continuous, day 8, control group 6.5 ± 2.0

SMILES	melting point	amount of HSP90 client protein ERα [1]	amount of HSP90 client protein Her2 [2]	IC50 (rHSP90) [nM]	IC50 [3] [nM]	Relative tumor volume (Average ± SD) (Human lung cancer H460; Table 8, 3.8 mg/kg/day, 7 days continuous, day 7, control group 7.3 ± 1.7)	Relative tumor volume (Average ± SD) (Human lung cancer H460; Table 8, 7.5 mg/kg/day, 7 days continuous, day 7, control group 7.3 ± 1.7)	Relative tumor volume (Average ± SD) (Human lung cancer H460; Table 9, 75 mg/kg/day, 5 days continuous, day 8, control group 4.6 ± 3.1)	Relative tumor volume (Average ± SD) (Human lung cancer H460; Table 9, 150 mg/kg/day, 5 days continuous, day 8, control group 4.6 ± 3.1)	Relative tumor volume (Average ± SD) (Human lung cancer H460; Table 10, 50 mg/kg/day, 5 days continuous, day 8, control group 6.5 ± 2.0)	Relative tumor volume (Average ± SD) (Human lung cancer H460; [4])	Relative tumor volume (Average ± SD) (Human lung cancer H460; Table 10, 150 mg/kg/day, 5 days continuous, day 8, control group 6.5 ± 2.0)
COc1ccc(-n2c(-c3cc(C(C)C)c(O)cc3O)nnc2S(=O)(=O)CCCN(C)C)cc1 (as salt: hydrochloride) [SFN2-a08, 4-[5-(3-dimethylamino-propane-1-sulfonyl)-4-(4-methoxy-phenyl)-4H-[1,2,4]triazol-3-yl]-6-isopropyl-benzene-1,3-diol]	233 °C (dec.)											
COc1ccc(-n2c(NS(C)(=O)=O)nnc2-c2cc(C(C)C)c(O)cc2O)cc1 [Example N1-a08, N-[5-(2,4-dihydroxy-5-isopropyl-phenyl)-4-(4-methoxy-phenyl)-4H-[1,2,4]triazol-3-yl]-methanesulfonamide]		depression	depression	290	180							
CC(C)c1cc(-c2n[nH]c(=O)n2-c2ccc(N3CCOCC3)cc2)c(O)cc1O [OH-a01, 4-{5-hydroxy-4-[4-(morpholin-4-yl)-phenyl]-4H-[1,2,4]triazol-3-yl}-6-isopropyl-benzene-1,3-diol]		depression	depression	140	4.9	3.3 ± 0.7	1.7 ± 0.5					
CC(C)c1cc(-c2n[nH]c(=O)n2-c2ccc(CN3CCOCC3)cc2)c(O)cc1O [OH-a02, 4-{5-hydroxy-4-[4-(morpholin-4-ylmethyl)-phenyl]-4H-[1,2,4]triazol-3-yl}-6-isopropyl-benzene-1,3-diol]		depression	depression	180	16			3.5 ± 2.3	2.1 ± 0.1			
CC(C)c1cc(-c2n[nH]c(=O)n2-c2ccc(O)cc2)c(O)cc1O [OH-a11, 5-(2,4-dihydroxy-5-isopropylphenyl)-4-(4-hydroxyphenyl)-4H-[1,2,4]triazol-3-one]		depression	depression	220	77							
CC(C)c1cc(-c2n[nH]c(=O)n2-c2ccc(CN3CCN(C)CC3)cc2)c(O)cc1O [OH-a13, 5-(2,4-dihydroxy-5-isopropylphenyl)-4-[4-(4-methylpiperazin-1-ylmethyl)phenyl]-2,4-dihydro-[1,2,4]triazol-3-one]		depression	depression	250	71					1.4 ± 0.5	1.1 ± 0.3	
CC(C)c1cc(-c2n[nH]c(=O)n2C(C)C)c(O)cc1O [OH-a21, 5-(2,4-dihydroxy-5-isopropyl-phenyl)-4-isopropyl-2,4-dihydro-[1,2,4]triazol-3-one]	261 to 262 °C (dec.)	depression	depression	130	38							
COc1ccc(-n2c(-c3cc(C(C)C)c(O)cc3O)nnc2S(=O)(=O)CCCN(C)C)cc1 [SFN2-a08, 4-[5-(3-dimethylamino-propane-1-sulfonyl)-4-(4-methoxy-phenyl)-4H-[1,2,4]triazol-3-yl]-6-isopropyl-benzene-1,3-diol]		depression	depression	700	69							
COc1ccc(-n2c(-c3cc(C(C)C)c(O)cc3O)nnc2S(=O)(=O)CCCN2CCCCC2)cc1 [SFN3-a08, 4-isopropyl-6-[4-(4-methoxy-phenyl)-5-(3-piperidin-1-yl-propane-1-sulfonyl)-4H-[1,2,4]triazol-3-yl]-benzene-1,3-diol]		depression	depression	590	44						5.4 ± 1.3	2.9 ± 0.6
CC(C)c1cc(-c2nnc(S(C)(=O)=O)n2-c2ccc(CN3CCOCC3)cc2)c(O)cc1O [SFN-a02, 4-isopropyl-6-{5-methanesulfonyl-4-[4-(morpholin-4-ylmethyl)-phenyl]-4H-[1,2,4]triazol-3-yl}-benzene-1,3-diol]		depression	depression	120	150							
COc1ccc(-n2c(-c3cc(C(C)C)c(O)cc3O)nnc2S(C)(=O)=O)cc1 [SFN-a08, 4-isopropyl-6-[5-methanesulfonyl-4-(4-methoxy-phenyl)-4H-[1,2,4]triazol-3-yl]-benzene-1,3-diol]		depression	depression	94	270							
CC(C)c1cc(-c2n[nH]c(=S)n2-c2ccc(CN3CCOCC3)cc2)c(O)cc1O [SH-a02, 4-isopropyl-6-{5-mercapto-4-[4-(morpholin-4-ylmethyl)-phenyl]-4H-[1,2,4]triazol-3-yl}-benzene-1,3-diol]		depression	depression	240	36							
